Reference: PubChem BioAssay (NCI)
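Protocol summary: plate cells (96-well), add compound at 5 concentrations, incubate 48 h, interpolate endpoints linearly. The concentration for 50% growth inhibition is given as GI50. The concentration for full growth arrest is given as TGI.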 Where a SMILES comes first, the peptide text is derived from it. The star is where a group is joined. Cbz = O=C(OCc1ccccc1)*

Columns and labels:
Assay in all cases: NCI-60 cell line screen, 48 h
[1] = system: HOP-92 NSCLC
[2] = system: DU-145 prostate
[3] = system: HCT-15 colon
[4] = system: PC-3 prostate
[5] = system: MOLT-4 leukemia
[6] = system: K-562 leukemia
[7] = system: OVCAR-8 ovarian
[8] = system: NCI-H226 lung
[9] = system: SNB-19 CNS
[10] = system: M14 melanoma

SMILES	TGI [1] [µM]	TGI [2] [µM]	TGI [3] [µM]	TGI [4] [µM]	TGI [5] [µM]	TGI [6] [µM]	TGI [7] [µM]	TGI [8] [µM]	TGI [9] [µM]	TGI [10] [µM]	GI50 [1] [µM]	GI50 [3] [µM]	GI50 [4] [µM]	GI50 [10] [µM]	GI50 [5] [µM]	GI50 [9] [µM]	GI50 [2] [µM]	GI50 [6] [µM]	GI50 [7] [µM]	GI50 [8] [µM]
COC(=O)c1sc2nc(Nc3ccccc3)c(=Nc3ccccc3)sc2c1C	92	> 100	> 100	> 100	> 100	> 100	> 100	> 100	> 100	–	–	–	–	–	–	–	–	–	–	–
Cc1c2ccccc2c(=O)n2c(-c3ccccn3)cccc12	> 100	–	> 100	–	> 100	> 100	> 100	> 100	> 100	> 100	–	–	–	–	–	–	–	–	–	–
O=C1CC(Nc2ccccc2)c2c(Cl)sc(Cl)c21 (stereo not given)	3.13	3	2.36	3.06	5.18	> 100	–	24	20.5	3.4	–	–	–	–	–	–	–	–	–	–
COc1cc(OC)c(-n2[nH]c(=O)n(C)c2=O)c(OC)c1	–	> 100	> 100	> 100	> 100	> 100	> 100	> 100	> 100	> 100	–	–	–	–	–	–	–	–	–	–
COc1cc2c(c3nc4ccccc4nc13)-c1ccc(SC)c(=O)cc1[C@@H](NC(C)=O)CC2	> 75.1	0.838	> 21.7	> 100	> 100	> 100	–	–	> 100	> 100	–	–	–	–	–	–	–	–	–	–
COc1ccc(-c2nc(-c3nc4cc(Cl)c(Cl)cc4[nH]3)c3ccccn23)cc1	5.1	–	> 100	> 100	> 100	–	–	–	> 100	> 100	1.82	30.1	2.58	4.92	> 100	2.64	–	–	–	–
O=c1[nH]nc(-c2ccc3ccccc3c2)[nH]1	–	> 100	> 100	> 100	> 100	> 100	> 100	> 100	> 100	> 100	–	–	–	–	–	–	–	–	–	–
CC(C)C(Sc1nc(-c2ccccc2)c(-c2ccccc2)[nH]1)C(=O)N/N=C/c1ccc(Cl)cc1 (stereo not given)	54.2	–	59.3	–	–	–	53.6	41.5	> 100	33.7	–	–	–	–	–	–	–	–	–	–
Cc1ccc(S(=O)(=O)N(CC(O)COc2ccccc2)c2c(F)c(F)c(F)c(F)c2F)cc1 (stereo not given)	21.7	72.9	33	29.2	56.4	–	32.8	42.7	43.3	41	–	–	–	–	–	–	–	–	–	–
CCCCOC(=O)Nc1ccc(S(=O)(=O)Nc2c(Cl)cccc2Cl)cc1	75.7	> 100	79.5	> 100	88.4	47.8	64.6	–	> 100	> 100	–	–	–	–	–	–	–	–	–	–
COC(=O)C12C(=O)CC3CCC1C32C(=O)OC (stereo not given)	–	> 100	> 100	> 100	> 100	> 100	> 100	> 100	> 100	> 100	–	–	–	–	–	–	–	–	–	–
CN(C)c1ccc(-c2c(C#N)c(-c3ccccc3)n(NS(=O)(=O)c3ccccc3)c(=O)c2C#N)cc1	> 100	–	> 100	> 100	55.8	> 100	> 100	> 100	83.5	> 100	–	–	–	–	–	–	–	–	–	–
CCOC(=O)CCC(NC(=O)C(CC(=O)OC)NC(=O)OCc1ccccc1)C(=O)NC(CC(=O)OC)C(=O)NC(CCC(=O)OCC)C(=O)NC(CC(=O)OC)C(=O)NC(CCC(=O)OCC)C(=O)NC(CC(=O)OCC)C(=O)OCC (stereo not given) (Cbz-D(OMe)E(OEt)D(OMe)E(OEt)D(OMe)E(OEt)D(OEt)-OEt; configuration not given here)	–	> 100	> 100	> 100	> 100	> 100	> 100	> 100	> 100	–	–	–	–	–	–	–	–	–	–	–
OC1C2CN3CCN(C2)CC1(c1ccccc1)C3 (stereo not given)	–	> 100	–	> 100	> 100	> 100	> 100	> 100	> 100	–	–	–	–	–	–	–	–	–	–	–
COc1ccccc1C1C(C#N)=C(N)SC(N)=C1C#N	> 100	> 100	> 100	–	> 100	> 100	> 100	75.8	> 100	> 100	47.1	81.3	–	91.6	45	> 100	41.3	41.8	90.4	25.6
COC(=O)[C@H](Cc1ccccc1)NC(=O)N(CCN(CCC#N)C(=O)N[C@H](C(=O)OC)C(C)C)c1ccccc1	80.5	> 100	> 100	> 100	> 100	–	> 100	> 100	> 100	> 100	–	–	–	–	–	–	–	–	–	–
CN(C(=O)Cc1cc(Cl)c(Cl)cc1NC(=O)CCCN)[C@H]1CCCC[C@@H]1N1CCCC1	–	> 100	> 100	> 100	> 100	> 100	> 100	> 100	45.4	34	–	–	–	–	–	–	–	–	–	–
O=C(O)CSC1=NCCN1	> 100	> 100	> 100	> 100	> 100	> 100	> 100	–	> 100	> 100	–	–	–	–	–	–	–	–	–	–
O=C(CSc1nc2ccccc2c(=O)n1-c1ccccc1)N=Nc1c(O)[nH]c2ccc(Br)cc12	7.76	3.39	30.2	4.03	> 29.4	10.3	3.99	–	27.2	6.87	–	–	–	–	–	–	–	–	–	–
CCCSc1ccc2[nH]c(N3C(=O)/C(=C/c4ccc(O)c(OC)c4)N=C3c3ccccc3)cc2c1	> 100	> 100	32	> 100	20.8	> 100	> 100	–	> 100	35.2	–	–	–	–	–	–	–	–	–	–
CC(C)NC1CCCCC2c3ccccc3C12O (stereo not given)	–	–	> 100	–	> 100	> 100	> 100	> 100	> 100	> 100	–	–	–	–	–	–	–	–	–	–
CN1CCN(c2n[nH]c(=O)c3c2nnn3Cc2ccccc2)CC1	> 100	> 100	> 100	37.1	> 100	> 100	> 100	–	> 100	> 100	–	–	–	–	–	–	–	–	–	–
